Test results from the NIST ThermoML archive (doi:10.1021/je800197t).

Conditions: Liquid

CN1CCOCC1 [N-methylmorpholine]
Conditions | mass density [kg/m3] | viscosity [mPa·s]
293.15 K | 918.74 | 1.028
303.15 K | 909.54 | 0.959
313.15 K | 902.37 | 0.858
323.15 K | 893.32 | 0.754
333.15 K | 884.36 | 0.626
343.15 K | 876.52 | 0.498
